Consider 3 compounds from patent publication US20210228548A1, “PHARMACEUTICAL COMPOSITION FOR PREVENTING, ALLEVIATING OR TREATING OSTEOARTHRITIS, CONTAINING RHODANINE DERIVATIVE AS ACTIVE INGREDIENT” (Avixgen Inc., priority 2018, published 2021).

What all share (type): in vivo, C57/BL6 mice
Test [1] has as its system mice with osteoarthritis induced by DMM. As to the kind of experiment: Osteoarthritis induced by destabilization of the medial meniscus (DMM): staining, OARSI grade, subchondral bone plate thickness. Conditions: intra-articular 0.0075, 0.015, 0.03 mg/kg once a week, three injections; for thickness of the subchondral bone plate (SBP): versus vehicle group (significantly increased), FIGS. 8B, 10B, 12B; for inflammation response in whole joint and cartilage tissues (images and OARSI grade): versus vehicle group, FIGS. 7B, 9B, 11B, 8A, 10A, 12A. The method, then:
Mice with osteoarthritis induced by destabilization of the medial meniscus (DMM) were prepared. As a control group, a group (sham) whose meniscus was not damaged during surgery was used.
Specifically, osteoarthritis was induced by damaging the menisci of joints of about 12-week-old male C57/BL6 mice, and each therapeutic agent (AVIX-7, MA3001 or MA6004) was injected intra-articularly.
Each of the therapeutic agents was used at doses of 0.0075 mg/kg, 0.015 mg/kg and 0.03 mg/kg mouse body weight. Each therapeutic agent was administered by injection once a week, and the amount of each therapeutic agent administered at each time point was 10 μl. One week after the day of the last injection of a total of three injections, the mice were sacrificed and the effect of each therapeutic agent on the amelioration of osteoarthritis was evaluated.
In order to evaluate the effect of the compounds of the present disclosure on the amelioration of osteoarthritis, mice were subjected to destabilization of the medial meniscus (DMM) to induce osteoarthritis and were treated with AVIX-7, MA3001 or MA6004. In addition, the cartilage and joint tissues were stained with hematoxylin-eosin/safranin-O, and the effect of AVIX-7, MA3001 or MA6004 on the amelioration of osteoarthritis was evaluated pathologically. […] The OARSI grading method is described in Table 4 below.

In test [2] the test system is ZIP8-overexpressing mice. As to the kind of experiment: Cartilage destruction in mice with osteoarthritis induced by ZIP8 overexpression (safranin-O staining, modified Mankin score). Conditions: Ad-ZIP8 mice, three injections; for modified Mankin score (degree of cartilage destruction): intra-articular 0.0075, 0.015, 0.03 mg/kg once a week, vehicle group 2 or higher, also decreased concentration-dependently, FIGS. 2A, 4A, 6A; for loss of the cartilage matrix (safranin-O staining of whole joint and cartilage): intra-articular co-injection 0.0075, 0.015, 0.03 mg/kg once a week, versus vehicle group, FIGS. 1, 3, 5. The method, then: (§1) Osteoarthritis-induced mice were prepared by overexpressing the zinc importer ZIP8 in the cartilage and joint tissues of mice.
(§2) Specifically, the cartilage and joint tissues of about 12-week-old male C57/BL6 mice were injected intra-articularly with a normal control adenovirus (Ad-C) or a ZIP8-expressing adenovirus (Ad-S1c39a8). A vehicle group was treated only with a vehicle without a vector. Each of the adenoviruses was injected at a concentration of 1×10^9 PFU a total of three times (once a week).
(§3) Meanwhile, in order to evaluate the effect of each of the therapeutic agents AVIX-7, MA3001 and MA6004 on the amelioration of osteoarthritis induced by ZIP8 overexpression, AVIX-7, MA3001 or MA6004 was co-injected into the joint when each adenovirus was injected.
(§4) Each of the therapeutic agents was used at doses of 0.0075 mg/kg, 0.015 mg/kg and 0.03 mg/kg mouse body weight. Each therapeutic agent was administered by injection once a week, and the amount of each therapeutic agent administered at each time point was 10 μl. One week after the day of the last injection of a total of three injections, the mice were sacrificed and the degree of cartilage destruction and the degree of occurrence of synovitis were analyzed.
In order to evaluate the therapeutic effect of AVIX-7, MA3001 or MA6004 on osteoarthritis in ZIP8-overexpressing mice, whole joint and cartilage tissues were stained with safranin-O and the degree of cartilage destruction was checked.
In addition, the degree of safranin-O staining (reflecting the degree of cartilage destruction) according to Table 2 below was observed and degraded according to the modified Mankin score (Mankin, Henry J., and Louis Lippiello. JBJS 52.3 (1970): 424-434.), and the grades were quantified graphically. The Mankin score is an index indicating the degree of arthritis and may be determined by the degree of safranin-O staining in mice, and the lower the Mankin score, the closer to normal.

Test [3] relates to ZIP8-overexpressing mice. The test can be described thus: Synovitis in ZIP8-overexpressing animal model (hematoxylin-eosin/safranin-O staining, synovitis score). Conditions: Ad-ZIP8 mice, intra-articular 0.0075, 0.015, 0.03 mg/kg once a week, three injections; for score of synovitis: untreated ZIP8 mice 2 or higher, FIGS. 2B, 4B, 6B; for inflammatory response (penetration of inflammatory cells into the synovium): versus vehicle group, FIGS. 1, 3, 5. The method, then: as §1, §2, §3, §4
In order to evaluate the osteoarthritis amelioration effect of each of the therapeutic agents developed in the present disclosure, the ZIP8-overexpressing animal model was treated with AVIX-7, MA3001 or MA6004, and the cartilage and joint tissues of the animal model were stained with hematoxylin-eosin/safranin-O, and the presence or absence of synovitis was checked. The ZIP8-overexpressing animal model was prepared by the method described in Example 1.
In addition, the degree of synovitis was scored according to “Synovitis score: discrimination between chronic low-grade and high-grade synovitis. Histopathology 49, 358-364” described in Table 3 below, and was quantified graphically.

Molecules are shown by their SMILES. “Also recorded” adds a separate entry of the source.

On to `O=C(O)CCN1C(=O)/C(=C\c2ccc(-c3ccc(Cl)cc3)o2)SC1=S` [AVIX-7, 3-{5-[5-(4-chlorophenyl)-furan-2-ylmethylene]-4-oxo-2-thioxo-thiazolidin-3-yl}-propionic acid], for which, in test [1], the “thickness of the subchondral bone plate (SBP)” value (shortened to “thickness”) is on record as “decreased”; the “inflammation response in whole joint and cartilage tissues (images and OARSI grade)” value (shortened to “inflammation response”) was “alleviated”. In addition, in the test on ZIP8-overexpressing mice [2], the “modified Mankin score (degree of cartilage destruction)” value (shortened to “modified Mankin score”) is “lower than that of the vehicle group”; the “loss of the cartilage matrix (safranin-O staining of whole joint and cartilage)” value (shortened to “loss of the cartilage matrix”) was “rescuing the loss of cartilage matrix; also recorded: concentration-dependently rescued”. In the test on ZIP8-overexpressing mice [3], the score of synovitis entry was “significantly decreased” and the “inflammatory response (penetration of inflammatory cells into the synovium)” value (“inflammatory response” below) is recorded as “alleviating synovitis; also recorded: alleviated”.
On to `CC(C)OC(=O)c1ccc(-c2ccc(/C=C3\SC(=S)N(CCCC(=O)O)C3=O)o2)cc1` [MA3001, 4-(5-((5-(4-(isopropoxycarbonyl)phenyl)furan-2-yl)methylene)-4-oxo-2-thioxothiazolidin-3-yl)butanoic acid], for which, in test [1], the “thickness” value is given as “decreased”; the “inflammation response” value was “alleviated”. For the same compound, in the test on ZIP8-overexpressing mice [2], the “modified Mankin score” value is given as “lower than that of the vehicle group”; the “loss of the cartilage matrix” value is “rescuing the loss of cartilage matrix; also recorded: concentration-dependently rescued”. In the test with ZIP8-overexpressing mice [3], the score of synovitis entry is “significantly decreased” and the “inflammatory response” value is recorded as “alleviating synovitis; also recorded: alleviated”.
Regarding `O=C(O)CCN1C(=O)SC(Cc2ccc(-c3ccc(Cl)cc3)o2)C1=O` (stereo not drawn) [MA6004, 3-(5-((5-(4-chlorophenyl)furan-2-yl)methyl)-2,4-dioxothiazolidin-3-yl)propionic acid], in test [1], the “thickness” value was “decreased”; the “inflammation response” value is listed as “alleviated”. Moreover, in the test with ZIP8-overexpressing mice [2], the “modified Mankin score” value is recorded as “lower than that of the vehicle group”; the “loss of the cartilage matrix” value was “rescuing the loss of cartilage matrix; also recorded: concentration-dependently rescued”. In addition, in the test on ZIP8-overexpressing mice [3], the score of synovitis entry was “significantly decreased” and the “inflammatory response” value is recorded as “alleviating synovitis; also recorded: alleviated”.
